Assay results published in patent US4543255A, “Carbocyclic analogs of purine 2'-deoxyribofuranosides” (Southern Research Institute, priority 1984, dated 1985).
Values after ≈ are worked out from the molar mass of the structure shown. “Also recorded” adds a separate entry of the source. Read-outs that look alike come from different tables or passages of the source.

Columns and labels:
[1] = test system: Herpes Simplex Virus Type 1, Strain 377; test: antiviral activity vs herpes simplex virus type 1 (virus-induced cytopathogenic effects in host cells); type: cell-based; conditions: for VR (Virus Rating): VR ≥1 indicates definite antiviral activity, 0.5-0.9 marginal to moderate; for EC50: Human alphaherpesvirus 1, Vero, read-out: MIC50 (concentration for 50% inhibition of virus-induced cytopathogenic effects); for antiviral activity against HSV-1 (in words): comparisons are with Ara-A (positive control)
Method: (§1) Certain representatives of Formulas V-VIII have potent antiviral activity and may be useful for the treatment of virus-induced diseases. The antiviral activity of compounds represented by Formulas V-VIII was measured as a virus rating (VR), and the potency (MIC50) was determined as the concentration of the tested compound required to inhibit virus-induced cytopathogenic effects in host cells by 50%. Carbocyclic analogs of 2'-deoxyribofuranosides represented by Formulas V-VIII have unequivocal and generally high activity in inhibiting replication of both type 1 herpes simplex virus (HSV-1) and type 2 herpes simplex virus (HSV-2). […] Notable examples are the carbocyclic analogs of 2,6-diaminopurine 2'-deoxyribofuranoside (Example 5), 2'-deoxyguanosine (Example 6), 2'-deoxythioguanosine (Example 7), 2,6-diamino-8-azapurine 2'-deoxyribofuranoside (Example 9), and 2'-deoxy-8-azaguanosine (Example 10).
(§2) Carbocyclic analogs (Formulas (V-VIII) of 2'-deoxyribofuranoside derivatives of 2-amino-6-substituted-purines and of 2-amino-6-substituted-8-azapurines were tested for antiviral activity against viruses that replicate in mammalian cells growing in cell culture. The results of these tests against herpes simplex viruses are summarized in Table 1. The Virus Rating (VR) is a weighted measurement of antiviral activity determined by the method of Ehrlich et al., Annals of the New York Academy of Science, volume 130, pages 5-16, 1965. In tests carried out by this method, a VR of 0.5-0.9 indicates marginal to moderate antiviral activity, and a VR equal to or greater than 1 indicates definite antiviral activity. The higher the value of VR, the greater is the antiviral activity. The MIC50 (minimum inhibitory concentration, 50%) is the concentration of a test compound required for 50% inhibition of virus-induced cytopathogenic effects. The 2'-deoxyribofuranoside analogs of Examples 4-10 have unequivocal and selective antiviral activity against both type 1 and type 2 strains of herpes simplex virus.
(§3) ^a Antiviral evaluations were performed with HSV1 and HSV2 replicatin
(§4) either in secondary cultures of rabbit kidney cells or in Vero cells.
(§5) ^b 9D-Arabinofuranosyladenine was tesed as a positive control; the
(§6) range of values of VR and MIC50 came from several tests with either
(§7) rabbit kidney cells or Vero cells as the host cells.

[2] = test system: Herpes Simplex Virus Type 2, Strain MS; test: antiviral activity vs herpes simplex virus type 2 (virus-induced cytopathogenic effects in host cells); type: cell-based; conditions: for VR (Virus Rating): VR ≥1 indicates definite antiviral activity, 0.5-0.9 marginal to moderate; for EC50: read-out: MIC50 (concentration for 50% inhibition of virus-induced cytopathogenic effects); for antiviral activity against HSV-2 (in words): comparisons are with Ara-A (positive control)
Method: as §1, §2, §3, §4, §5, §6, §7

[3] = HSV-1 strain 377, rabbit kidney cells or Vero cells
[4] = HSV-2 strain MS, rabbit kidney cells or Vero cells
[5] = Human alphaherpesvirus 2, HSV-2 strain MS, rabbit kidney cells or Vero cells

Structure (SMILES) | VR (Virus Rating) [1, 3] | EC50 [1, 3] [µg/mL] | VR (Virus Rating) [2, 4] | EC50 [2, 5] [µg/mL] | antiviral activity against HSV-1 (in words) [1] | MIC50 (concentration for 50% inhibition of virus-induced cytopathogenic effects) [1, 3] [µg/mL] | antiviral activity against HSV-2 (in words) [2] | EC50 [1] [µg/mL] | EC50 ([2]; Human alphaherpesvirus 2, Vero) [µg/mL]
Nc1nc(Cl)c2ncn([C@@H]3C[C@H](CO)[C@@H](O)C3)c2n1 (relative stereo) [Example 4, (1α, 2β, 4α)-4-(2-Amino-6-chloro-9H-purin-9-yl)-2-hydroxycyclopentanemethanol] | 1.9 | 8.1 (≈ 28.5 µM) | 2.0 | 37 (≈ 130 µM) | – | – | – | – | –
Nc1nc(N)c2ncn([C@@H]3C[C@H](CO)[C@@H](O)C3)c2n1 (relative stereo) [Example 5, (1α, 2β, 4α)-4-(2,6-Diamino-9H-purin-9-yl)-2-hydroxycyclopentanemethanol] | – | 0.6 (≈ 2.27 µM) | 2.9 | 2.4 (≈ 9.08 µM) | more active (VR=4-5) and more potent (lower MIC50) | 0.3 | equivalent or superior in activity and potency to Ara-A; also recorded: markedly more effective than was Ara-A | – | –
Nc1nc2c(ncn2[C@@H]2C[C@H](CO)[C@@H](O)C2)c(=O)[nH]1 (relative stereo) [Example 6, 2-Amino-1,9-dihydro-9-[(1α, 3β, 4α)-3-hydroxy-4-(hydroxymethyl)cyclopentyl]-6H-purin-6-one] | ≥ 4.6 | < 0.3 | 3.7 | 0.8 (≈ 3.02 µM) | more active (VR=4-5) and more potent (lower MIC50) | – | equivalent or superior in activity and potency to Ara-A; also recorded: markedly more effective than was Ara-A | – | –
Nc1nc2c(ncn2[C@@H]2C[C@H](CO)[C@@H](O)C2)c(=S)[nH]1 (relative stereo) [Example 7] | – | < 3.2 | 1.7 | 32 (≈ 114 µM) | more active (VR=4-5) and more potent (lower MIC50) | 1.8 | – | – | –
Nc1nc(Cl)c2nnn([C@@H]3C[C@H](CO)[C@@H](O)C3)c2n1 (relative stereo) [Example 8, (1α, 2β, 4α)-4-(5-Amino-7-chloro-3H-1,2,3-triazolo[4,5-d]pyrimidin-3-yl)-2-hydroxycyclopentanemethanol] | – | < 1 | 1.9 | 23 (≈ 80.8 µM) | – | 1.6 | – | – | –
Nc1nc(N)c2nnn([C@@H]3C[C@H](CO)[C@@H](O)C3)c2n1 (relative stereo) [Example 9, (1α, 2β, 4α)-4-(5,7-Diamino-3H-1,2,3-triazolo[4,5-d]pyrimidin-3-yl)-2-hydroxycyclopentanemethanol] | – | < 3.2 | 2.3 | 10 (≈ 37.7 µM) | more active (VR=4-5) and more potent (lower MIC50); also recorded: much more effective against HSV-1 than was Ara-A | 2.0 | equivalent or superior in activity and potency to Ara-A; also recorded: at least as effective as Ara-A against HSV-2 | – | –
Nc1nc2c(nnn2[C@@H]2C[C@H](CO)[C@@H](O)C2)c(=O)[nH]1 (relative stereo) [Example 10, 5-Amino-3,6-dihydro-3-[(1α, 2β, 4α)-3-hydroxy-4-(hydroxymethyl)cyclopentyl]-7H-1,2,3-triazolo[4,5-d]pyrimidin-7-one] | 4.2 | 0.6 (≈ 2.25 µM) | 2.1 | 6.9 (≈ 25.9 µM) | more active (VR=4-5) and more potent (lower MIC50); also recorded: much more effective against HSV-1 than was Ara-A | – | equivalent or superior in activity and potency to Ara-A; also recorded: at least as effective as Ara-A against HSV-2 | – | –
Nc1ncnc2c1ncn2[C@@H]1O[C@H](CO)[C@@H](O)[C@@H]1O [Ara-A, 9D-Arabinofuranosyladenine, reference compound] | 2.5-3.1 | – | 1.6-2.3 | – | – | – | – | 6.4 to 9.8 (≈ 23.9 to 36.7 µM) | 6.4 to 30 (≈ 23.9 to 112 µM)
